This is an account of results in PubChem BioAssay (NCI).

Among the test systems are NCI-H460 lung; IGROV1 ovarian; K-562 leukemia; CCRF-CEM leukemia; CAKI-1 renal; EKVX NSCLC; SF-539 CNS; SK-MEL-2 melanoma; MCF7 breast; SR leukemia.
What all share (experiment): NCI anticancer screen, dose series, 48 h

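Protocol summary: plate cells (96-well), add compound at 5 concentrations, incubate 48 h, interpolate endpoints linearly. At the GI50, growth is halved. TGI marks complete inhibition of growth.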 Bounds are passed on as bounds.

For the compound `CN(/N=C/c1ccnc2ccccc12)c1ccc([N+](=O)[O-])cc1[N+](=O)[O-]`, the TGI in the experiment with NCI-H460 lung, in the experiment with IGROV1 ovarian, with K-562 leukemia, in the experiment on CCRF-CEM leukemia, with CAKI-1 renal and in the experiment on EKVX NSCLC was above 100 µM each time. In addition, the TGI in the experiment on SF-539 CNS was above 100 µM; with SK-MEL-2 melanoma it was 79.1 µM.
For `O=C(N/C(=C\c1ccc(Br)cc1)c1nc2ccccc2s1)c1ccccc1`, the TGI in the experiment on NCI-H460 lung, with IGROV1 ovarian, with K-562 leukemia, in the experiment on CCRF-CEM leukemia, with CAKI-1 renal and in the experiment with EKVX NSCLC was above 100 µM throughout. In addition, the TGI in the experiment with SF-539 CNS and with SK-MEL-2 melanoma was above 100 µM throughout.
Consider `COc1ccc2c(c1OC)-c1c(c3ccc([N+](=O)[O-])cc3c(=O)n1CCCN=[N+]=[N-])C2=O`, for which the GI50 in the experiment on NCI-H460 lung is 9.97 µM; in the experiment on IGROV1 ovarian, 1.02 µM; in the experiment on K-562 leukemia, 23.3 µM; with CCRF-CEM leukemia, 2.04 µM; in the experiment on CAKI-1 renal it was 2.55 µM; in the experiment with MCF7 breast, 11.2 µM. Moreover, the GI50 in the experiment on EKVX NSCLC is above 100 µM; with SF-539 CNS, 5.23 µM; in the experiment on SK-MEL-2 melanoma, above 100 µM. In addition, the TGI with NCI-H460 lung was above 100 µM; in the experiment on IGROV1 ovarian, 23.9 µM; with K-562 leukemia, above 100 µM; in the experiment on CCRF-CEM leukemia it was 17.1 µM; in the experiment with CAKI-1 renal, 9.73 µM; with MCF7 breast, above 100 µM. In addition, the TGI was above 100 µM with EKVX NSCLC, 40.3 µM in the experiment on SF-539 CNS and above 100 µM with SK-MEL-2 melanoma.
Turning to `CC(=O)OCC(OC(C)=O)C(OC(C)=O)C(OC(C)=O)C(=O)CNn1c(-c2ccccc2)nc2ccc(Br)cc2c1=O` (configuration not stated), the TGI in the experiment on NCI-H460 lung, in the experiment on K-562 leukemia, in the experiment on CCRF-CEM leukemia, in the experiment with CAKI-1 renal, in the experiment with EKVX NSCLC and in the experiment with SF-539 CNS was above 100 µM each time. Moreover, the TGI in the experiment on SR leukemia and in the experiment with SK-MEL-2 melanoma was above 100 µM in each case.
In the case of `COc1cc(/C=C2\CC3C4CC=C5C[C@@H](N6CCCC6)CC[C@]5(C)C4CC[C@]3(C)[C@H]2OC(C)=O)ccc1OCCN1CCCCC1` (some centres not stated), the GI50 with NCI-H460 lung is 3.18 µM; in the experiment with IGROV1 ovarian, 1.59 µM; with K-562 leukemia, 0.105 µM; with CCRF-CEM leukemia, 0.0346 µM; in the experiment on CAKI-1 renal, 1.95 µM; in the experiment with MCF7 breast, 3.02 µM. For the same compound, the GI50 was 1.99 µM in the experiment with EKVX NSCLC, 1.66 µM in the experiment on SF-539 CNS and 1.87 µM in the experiment with SK-MEL-2 melanoma. For the same compound, the TGI in the experiment with NCI-H460 lung is above 100 µM; in the experiment with IGROV1 ovarian, 3.23 µM; with K-562 leukemia, 0.71 µM; in the experiment with CCRF-CEM leukemia it was 0.777 µM; in the experiment on CAKI-1 renal, 3.95 µM; in the experiment with MCF7 breast it was above 100 µM. The TGI was 4.3 µM with EKVX NSCLC, 3.16 µM in the experiment with SF-539 CNS and 3.36 µM in the experiment on SK-MEL-2 melanoma.
Consider `COc1ccc(/C(Cl)=C(\C=O)c2ccc(Br)cc2)cc1OC`, for which the TGI in the experiment with NCI-H460 lung is above 100 µM; in the experiment on IGROV1 ovarian, above 100 µM; with K-562 leukemia, above 100 µM; in the experiment with CAKI-1 renal, above 100 µM; in the experiment on EKVX NSCLC, above 100 µM; in the experiment on SF-539 CNS it was 67.1 µM. The same compound registered a TGI with SK-MEL-2 melanoma of 74.4 µM.
Consider `O=C(O)c1ccc(N=Nc2cc(S(=O)(=O)O)c3cccnc3c2O)cc1`, for which the TGI with NCI-H460 lung, in the experiment with IGROV1 ovarian, in the experiment with K-562 leukemia, with CAKI-1 renal, with EKVX NSCLC and in the experiment with SF-539 CNS was above 100 µM in each case. Besides, the TGI in the experiment on SR leukemia and in the experiment on SK-MEL-2 melanoma was above 100 µM throughout.
Turning to `CCN(CC)CCCCCOc1cc(O)c2c(=O)cc(-c3ccccc3)oc2c1`, the GI50 is 2.24 µM in the experiment on NCI-H460 lung; 2.08 µM in the experiment on IGROV1 ovarian; 1.86 µM in the experiment with K-562 leukemia; 1.66 µM in the experiment with MCF7 breast; 6.93 µM with EKVX NSCLC; 2.43 µM with SF-539 CNS. The GI50 in the experiment on SK-MEL-2 melanoma was 3.23 µM. Also, the TGI amounted to 5.48 µM with NCI-H460 lung; 4.87 µM in the experiment on IGROV1 ovarian; 3.56 µM with K-562 leukemia; 3.83 µM with MCF7 breast; 23.6 µM in the experiment with EKVX NSCLC; 6.01 µM with SF-539 CNS. Moreover, in the experiment on SK-MEL-2 melanoma, the TGI turned out to be 11.4 µM.
Turning to `CCOC(=O)CC1=NC(=Nc2cc(Cl)ccc2Cl)SC1`, the TGI with NCI-H460 lung, in the experiment with IGROV1 ovarian, with K-562 leukemia, with CCRF-CEM leukemia, with CAKI-1 renal and in the experiment with EKVX NSCLC was above 100 µM in each case. Further, the TGI in the experiment on SF-539 CNS and in the experiment on SK-MEL-2 melanoma was above 100 µM each time.
In the case of `COC(=O)C1=C(c2cc(OC)c(OC)c(OC)c2)OC(c2cc(OC)c(OC)c(OC)c2)C1COC(C)=O` (configuration not stated), the TGI in the experiment with NCI-H460 lung, with IGROV1 ovarian, in the experiment on K-562 leukemia, in the experiment on CCRF-CEM leukemia, in the experiment on CAKI-1 renal and in the experiment on EKVX NSCLC was above 100 µM throughout. For the same compound, the TGI in the experiment with SF-539 CNS was above 100 µM; in the experiment on SR leukemia, 52.2 µM.
For the compound `CCc1ccccc1-n1c2nc(=O)n(C)c(=O)c-2nc2ccccc21`, the TGI with NCI-H460 lung worked out at 20.8 µM; in the experiment on IGROV1 ovarian it was 35.4 µM; with K-562 leukemia, 31.8 µM; in the experiment on CCRF-CEM leukemia, 39.3 µM; with CAKI-1 renal, 49.3 µM; with EKVX NSCLC, 24.6 µM. Moreover, the TGI with SF-539 CNS amounted to 27.7 µM; in the experiment with SK-MEL-2 melanoma it was 39.1 µM.
As to `O=C1OC(c2ccccc2)=N/C1=C\c1c(O)cc(O)cc1O`, the TGI in the experiment with IGROV1 ovarian, in the experiment on K-562 leukemia, in the experiment with CCRF-CEM leukemia, with CAKI-1 renal, in the experiment on EKVX NSCLC and with SF-539 CNS was above 100 µM in each case. Further, the TGI in the experiment with SK-MEL-2 melanoma was above 100 µM.
As to `Cc1cccc2c1Oc1cc(Cl)ccc1C2NC(=O)CN(C)C` (configuration not stated), the TGI with NCI-H460 lung, with IGROV1 ovarian, with K-562 leukemia, in the experiment with CCRF-CEM leukemia, in the experiment with EKVX NSCLC and in the experiment on SF-539 CNS was above 100 µM in each case. This compound also yielded a TGI with SR leukemia above 100 µM.
Regarding `N#CCC(=O)N/N=C1/C(=O)NC(=O)C(=O)C1c1nc2ccccc2s1` (configuration not stated), the TGI in the experiment on IGROV1 ovarian, in the experiment on K-562 leukemia, with CCRF-CEM leukemia, with CAKI-1 renal, with EKVX NSCLC and in the experiment with SF-539 CNS was above 100 µM each time. Further, the TGI with SR leukemia and with SK-MEL-2 melanoma was above 100 µM throughout.
Consider `COc1ccc(NC(=O)Nc2ccc(Nc3nc(C)cc(Nc4ccc(C)cc4)n3)cc2)cc1`, for which the GI50 in the experiment on IGROV1 ovarian was 1.71 µM; in the experiment with EKVX NSCLC, 2.03 µM; with SF-539 CNS, 1.7 µM; in the experiment with SK-MEL-2 melanoma it was 1.85 µM. Further, the TGI in the experiment on IGROV1 ovarian was found to be 3.28 µM; in the experiment with EKVX NSCLC, 4.42 µM; with SF-539 CNS, 3.31 µM; in the experiment with SK-MEL-2 melanoma, 3.57 µM.
Turning to `Cc1ccc(S(=O)(=O)NC(CCC(=O)Nc2ccccc2)C(=O)Nc2ccccc2)cc1` (configuration not stated), the GI50 in the experiment on EKVX NSCLC was 0.401 µM; in the experiment with SF-539 CNS it was 0.283 µM; in the experiment on SK-MEL-2 melanoma it was 0.427 µM. Further, the TGI with EKVX NSCLC was 2.3 µM; in the experiment with SF-539 CNS, 0.89 µM; in the experiment with SK-MEL-2 melanoma, 1.47 µM.
Turning to `COC1(OC)CC2C(=O)N(Cc3ccccc3)C1CC2S(=O)(=O)c1ccccc1` (configuration not stated), the TGI with NCI-H460 lung, in the experiment with IGROV1 ovarian, in the experiment with K-562 leukemia, in the experiment with CCRF-CEM leukemia, in the experiment on EKVX NSCLC and with SF-539 CNS was above 100 µM throughout. Further, in the experiment on SK-MEL-2 melanoma, the TGI was above 100 µM.
On to `CCOC(=O)CNC(=O)CCCn1c(=O)c2c3ccccc3n(C)c2n2nnc(-c3ccccc3)c12`, for which the GI50 with NCI-H460 lung is above 50 µM; in the experiment on IGROV1 ovarian it was 8.87 µM; in the experiment on K-562 leukemia it was 4.73 µM; in the experiment with CCRF-CEM leukemia it was 26.5 µM; with CAKI-1 renal it was 8.37 µM; in the experiment with MCF7 breast, 31.3 µM. Besides, the GI50 in the experiment on EKVX NSCLC was 20.5 µM; in the experiment with SF-539 CNS, 4.3 µM; in the experiment with SK-MEL-2 melanoma, 9.46 µM. Further, the TGI is above 50 µM with NCI-H460 lung; 29.9 µM in the experiment on IGROV1 ovarian; above 50 µM in the experiment with K-562 leukemia; above 50 µM with CCRF-CEM leukemia; 20 µM with CAKI-1 renal; above 50 µM in the experiment on MCF7 breast. Moreover, the TGI in the experiment with EKVX NSCLC was above 50 µM; with SF-539 CNS, 11.6 µM; with SK-MEL-2 melanoma, 29.1 µM.
For the compound `CCOC(=O)C1=C(NC(C)(C)C)OCC1=O`, the TGI in the experiment with NCI-H460 lung, with IGROV1 ovarian, in the experiment on K-562 leukemia, in the experiment on CAKI-1 renal, with SF-539 CNS and in the experiment with SR leukemia was above 100 µM each time. For the same compound, the TGI in the experiment on SK-MEL-2 melanoma was above 100 µM.
`CCOC(=O)c1cc2cc(NC(=O)c3cc4cc([N+](=O)[O-])ccc4n3C)ccc2n1C`: the GI50 in the experiment on NCI-H460 lung is 30.6 µM; with IGROV1 ovarian it was above 100 µM; in the experiment on K-562 leukemia, 59.1 µM; in the experiment on CCRF-CEM leukemia, 7.94 µM; with CAKI-1 renal it was 30.9 µM; with MCF7 breast, 44.2 µM. For the same compound, the GI50 with EKVX NSCLC is 20 µM; in the experiment on SK-MEL-2 melanoma it was above 100 µM. Further, the TGI in the experiment on NCI-H460 lung, with IGROV1 ovarian, in the experiment with K-562 leukemia, in the experiment with CCRF-CEM leukemia, with CAKI-1 renal and with MCF7 breast was above 100 µM each time. Further, the TGI with EKVX NSCLC and in the experiment with SK-MEL-2 melanoma was above 100 µM each time.
